The numbers were not newly measured in patent US20020132320A1, “Glycoconjugate synthesis using a pathway-engineered organism” (priority 2001, published 2002), which cites them from elsewhere.

Structures are written as SMILES.

One series has as its target T1, CMP-NeuNAc synthetase (Escherichia coli O18:K1:H7, UniProt P13266).
T1 construct: host or cells: E. coli K1
Particulars: enzyme purified from E. coli K1; read-out: apparent Km.

Series [1] relates to UDP-GalNAc pyrophosphorylase. To be noted: substrate of purified UDP-GalNAc pyrophosphorylase.
In a further series the target is E. coli NanA (Escherichia coli, UniProt P0A6L4). To be noted: cleavage reaction.
Series [2] addresses Hyaluronan synthase (spHAS) (Streptococcus pyogenes, UniProt P0C0H0).
For series [3] the following is noted: relative to morphine.

Consider `Nc1ccn([C@@H]2O[C@H](COP(=O)(O)OP(=O)(O)OP(=O)(O)O)[C@@H](O)[C@H]2O)c(=O)n1` [CTP, Cytosine 5′-triphosphate], for which the Km at CMP-NeuNAc synthetase is 310 µM.
Regarding `CC(=O)N[C@H]1C(OP(=O)(O)O)O[C@H](CO)[C@H](O)[C@@H]1O` (stereo partly shown) [GalNAc-1-P, N-acetylgalactosamine-1-phosphate], in series [1], the Km was 290 µM.
As for `CC(=O)NC1C(OP(=O)(O)O)OC(CO)C(O)C1O` (stereo not shown) [GlcNAc-1-P], the Km in series [1] is 1100 µM.
As for `CC(=O)N[C@H]1[C@H]([C@H](O)[C@H](O)CO)OC(O)(C(=O)O)C[C@@H]1O` (stereo partly shown) [NeuNAc, N-acetylneuraminic acid], at E. coli NanA, the Michaelis constant (Km) is 4300 µM.
`O=C(O)[C@H]1O[C@H](OP(=O)(O)OP(=O)(O)OC[C@H]2O[C@@H](n3ccc(=O)[nH]c3=O)[C@H](O)[C@@H]2O)[C@H](O)[C@@H](O)[C@@H]1O` [UDP-GlcA, uridine 5′-diphosphoglucuronic acid]: the Michaelis-Menten constant (Km) in series [2] was 40 ± 4 µM.
On to `CC(=O)N[C@H]1[C@@H](OP(=O)(O)OP(=O)(O)OC[C@H]2O[C@@H](n3ccc(=O)[nH]c3=O)[C@H](O)[C@@H]2O)O[C@H](CO)[C@@H](O)[C@@H]1O` [UDP-GlcNAc, uridine 5′-diphospho-N-acetylglucosamine], for which the Michaelis-Menten constant (Km) in series [2] is 149 ± 3 µM.
Turning to `CN1CC[C@]23c4c5ccc(O)c4O[C@H]2[C@@H](O[C@@H]2O[C@H](C(=O)O)[C@@H](O)[C@H](O)[C@H]2O)C=C[C@H]3[C@H]1C5` [morphine-6-O-glucuronide], the “times more active than morphine” value in series [3] is 50 times.

A word on the Km: it is the concentration of substrate that gives half-maximal velocity.
